Laboratory results as given in patent publication US9040035B2, “Treatment of pain using placental stem cells” (ANTHROGENESIS CORPORATION, priority 2011, dated 2015).

Legend:
[1] = system: Sciatic nerve chronic constriction injury; assay: Sciatic nerve chronic constriction injury (CCI) in rats, tactile allodynia test; format: in vivo, rat; conditions: 100 mg/ml, 0.25 ml IP; days 10, 16, 25 and 30
From the text: (§1) Seventy seven male Sprague Dawley rats, 3 months old, approximately 200-250 g at study initiation were included in the study. Minimum and maximum weights of the group were within a range of ±20% of group mean weight. Following several days of habituation the rats underwent baseline measurements for pain behavior (tactile-allodynia) and motor sensory assessment (rotarod test). All the rats underwent Sciatic nerve chronic constriction injury (CCI); pain development was verified on the 6th day following the operation and sensory motor behavior on the 7th. On the 8th day following the procedure the rats were assigned randomly to the various treatment groups (Table 5). Pain levels were assessed on the 6th, 10th, 16th, 25th and 30th days following the procedure. Motor sensory coordination was assessed on the 11th, 21st, 26th and 34th days. […]
Pain level was evaluated using a Tactile allodynia test. In this test, the withdrawal response to calibrated Von Frey fibers is measured. […] Each fiber was applied to the paw five times and a percentage score of responses was calculated (see Flatters et al., Pain, 2004, 109:150-161). […]
(§2) Data were tabulated and analyzed using StatView software version 5.0 (SAS Institute Inc., San Francisco, Calif., USA). […] Behavioral statistics were calculated only for rats with data at all time points. […]

[2] = system: motor sensory coordination; assay: Sciatic nerve chronic constriction injury (CCI) in rats, Rotarod test; format: in vivo, rat; conditions: 100 mg/ml, 0.25 ml IP
From the text: as §1, with “days. On the 35th day the rats were euthanized, the sciatic nerves (both sides) were collected and embedded in paraffin.” for “days.”
Motor sensory coordination was evaluated with the Rotarod Test. […] The rodent's ability to remain on the rotating rod is recorded (time in seconds). […]
as §2

NCC1(CC(=O)O)CCCCC1 [gabapentin]
pain (responses to 26 g stimuli) compared to day 6 [1]: significantly reduced the pain | time spent on the rotarod (motor sensory coordination) [2]: significant reduction in the time spent on the rotarod
